Experimental data taken from patent publication US20240252716A1, “SELF-ASSEMBLING NANOFIBROUS ULTRASHORT PEPTIDE HYDROGELS FOR VASCULAR TISSUE ENGINEERING” (KING ABDULLAH UNIVERSITY OF SCIENCE AND TECHNOLOGY, priority 2021, published 2024).
[ ]: non-standard residue; d: D form. Cha = N[C@@H](CC1CCCCC1)C(=O)O

Experiments:
[1] = test system: HUVECs; experiment: Endothelial cell marker expression (immunostaining); assay type: cell-based, Human; settings: similar to that in Matrigel
Experimental: The functionality of HUVECs in different scaffolds was determined by the expression of universal endothelial cell markers, including CD34, CD146 and Von-Willebrand factor (vWF).
(§1) Immunostaining was performed after 24 h of culture. In brief, the cells were fixed with 4% paraformaldehyde solution for 30 minutes and incubated in a cold cytoskeleton buffer (3 mM MgCl2, 300 mM sucrose and 0.5% Triton X-100 in PBS solution) for 10 minutes to permeabilize the cell membranes. The permeabilised cells were incubated in blocking buffer solution (5% FBS, 0.1% Tween-20, and 0.02% sodium azide in PBS) for 30 minutes at 37° C., followed by incubation with rhodamine-phalloidin (1:300) for 1 hour at 37° C. In case of endothelial cell markers, the sample incubated with Mouse anti-Endothelial Cell CD146 ( 1/500), Rabbit anti-VWF ( 1/5000) or Mouse anti-CD31 ( 1/50) for 1 hour and followed by secondary antibody. Furthermore, the cells were incubated in DAPI for 5 minutes at room temperature to counterstain the nucleus. Finally, the cells were observed and imaged using a laser scanning confocal microscope (Zeiss® LSM 710 Inverted Confocal Microscope, Germany).

[2] = test system: HUVEC cells; experiment: LIVE/DEAD staining viability of HUVEC cells cultured in peptide hydrogels; assay type: cell-based, Human; settings: cultured within hydrogel; 24 h, 4 days and 7 days; versus Matrigel
Experimental: Viability of HUVEC cells were evaluated by using LIVE/DEAD® staining at different time points in order to assess the compatibility of peptide scaffolds with cells. In one embodiment, the viability of HUVEC cells was determined after 24 h, 4 days and 7 days of culturing within peptide scaffolds.
In FIG. 3, for living cells were stained in green by calcein AM, while dead cells were stained in red by ethidium homodimer (EthD-1).
HUVEC cells were seeded and treated with peptides according to the protocol described above. After 24 h of incubation, the media was removed and replaced with DPBS solution containing approximately […] calcein AM and […] ethidium homodimer-1 (LIVE/DEAD® Viability/Cytotoxicity Kit, Life Technologies®) and incubated for 30 min in dark. Before imaging, the staining solution was removed and fresh DPBS was added. Stained cells were imaged with ZEISS® fluorescent microscope.
(§2) HUVEC cells were encapsulated in peptide hydrogels in 96 well tissue culture plates. Peptide solution was added to the plate at 40 μL per well. HUVEC cells suspended in 2×PBS were added to each well at 40,000 cells/well and gently mixed. The final concentration of the peptide hydrogel was 1× after the addition of 2×PBS containing cells. […] At pre-determined time points, the 3D cell viability assay, live/dead assay and florescence staining were performed.

[3] = test system: HUVEC cells; experiment: 3D cell proliferation assay (CellTiter-Glo, ATP production); assay type: cell-based, Human
Experimental: In one embodiment, HUVEC cells have higher proliferation cultured in peptides than in Matrigel®. Proliferation of cells cultured in both hydrogels and Matrigel® was evaluated by measuring the production of ATP after culturing for different period of time. The differences in ATP produced when cultured in different scaffolds was calculated.
HUVEC cells were encapsulated in peptide hydrogels in 96 well tissue culture plates. Peptide solution was added to the plate at 40 μL per well. HUVEC cells suspended in 2×PBS were added to each well at 40,000 cells/well and gently mixed. The final concentration of the peptide hydrogel was 1× after the addition of 2×PBS containing cells. Gelation occurred within 3-5 minutes and subsequently, the culture medium was added to the wells. At pre-determined time points, the 3D cell viability assay, live/dead assay and florescence staining were performed.
The CellTiter-Glo® luminescent 3D cell viability assay is a method to determine the number of viable cells in 3D hydrogels based on quantification of the ATP present, which signals the presence of metabolically active cells. After each time point, an equal amount of CellTiter-Glo® luminescent reagent was added to the same amount of media in each well. The contents were mixed for 5 minutes to digest the hydrogels and then incubated for 10 minutes. After incubation, the luminescence was recorded using a plate reader (PHERAstar® FS, Germany).

[4] = test system: HUVECs; experiment: Cell attachment of HUVECs on coverslips coated with hydrogels or Matrigel; assay type: cell-based, Human; settings: after 4 hours of culture
Experimental: Cell attachment was evaluated by seeding HUVECs on top of coverslips coated with Matrigel® (control) and different hydrogels. After incubation for 4 hours, efficient cell extension and adhesion in both control and hydrogels can be clearly seen, and also tube-like structure can be observed, as shown in FIG. 4. Furthermore, the number of cells attached was calculated for different scaffold used.

[5] = test system: HUVECs; experiment: Cytoskeletal (actin) staining with rhodamine-phalloidin; assay type: cell-based, Human; settings: 24 h of culture
Experimental: In one embodiment, HUVECs grown in peptide scaffolds maintain their normal morphology and functionality. […] In the present disclosure, the cytoskeleton organization of HUVECs grown in the nanofibers scaffolds was visualized by staining the actin of cells with rhodamine-phalloidin. Cell morphology and the organization of actin structures of HUVECs grown in different scaffolds were compared and shown in FIG. 7.
as §1

[6] = test system: HUVECs; experiment: In vitro angiogenesis study (tube-like structure formation); assay type: cell-based, Human; settings: for capillary-like structure formation by HUVECs: 2-6 hours of culture, no growth factors added to peptide scaffolds; for length of tube-like structure versus Matrigel: ImageJ, peptides without growth factor; for number of junctions of tube-like structure versus Matrigel: peptide hydrogels without growth factor, Matrigel with growth factors
Experimental: In one embodiment, HUVEC cells form tube-like structures when cultured in peptide hydrogels. In determining the effects of peptide scaffolds in facilitating the formation of the capillary-like structure formed by HUVEC cells, there was no addition of growth factors, after cells were plated on the surfaces of IIFK (SEQ ID NO. 1) and IIZK (SEQ ID NO. 2) scaffolds and Matrigel® (control). […] However, Matrigel® scaffold contains several growth factors that stimulate capillary-like structure formation rapidly. […] Tube length and diameter were evaluated using ImageJ software. […] In our study, no growth factors were added to the peptide scaffold.
Peptide hydrogel or Matrigel® were placed in 24 well plate, and human umbilical vein endothelial cells (HUVECs) 40,000 cells/well were added on top of peptide gel or Matrigel®. The amount of solutions in each well is about 200 μl. […] Cells were then investigated using inverted microscope, and images were analyzed by Image J using Angiogenesis Analyzer.

[7] = Peptide hydrogel preparation / gelation; assay type: physicochemical; settings: water, then PBS to 1x final
Description: The solution-gel transition of both peptides (IIFK (SEQ ID NO. 1) and IIZK (SEQ ID NO. 2)) were induced by the addition of 1×PBS. Scanning electron microscopy (SEM) and transmission electron microscopy (TEM) examinations also confirmed the self-assembling nanofiber formations, as shown in FIGS. 1 and 2. The scale bars are 1 μm in FIGS. 1 and 200 nm in FIG. 2.
The tetramer self-assembling peptides Ac-IIZK (SEQ ID NO. 2)-NH2 (Ac-Ile-Val-Cha-Lys-NH2) and Ac-IIFK (SEQ ID NO. 1)-NH2 (Ac-Ile-Val-Phe-Lys-N H2) were manually synthesized by using solid phase peptide synthesis and purified to above 95% via HPLC. Amino acid and peptide content analysis were performed. Lyophilized peptide was dissolved in milliQ® water and vortexed to get a homogenous solution. Subsequently, 10×phosphate buffered saline at the final concentration of 1× was added to the peptide solution and vortexed shortly. Gelation occurred within few seconds in IIZK (SEQ ID NO. 2) at I mg/mL and IIFK (SEQ ID NO. 1) at 2 mg/mL peptide concentration.
as §2, with “mixed.” for “mixed. The final concentration of the peptide hydrogel was 1× after the addition of 2×PBS containing cells.”

peptide concentration at which gelation occurred within few seconds [7]	Substance	expression of endothelial cell markers CD34, CD146 and vWF [1]	viability of HUVEC cells (LIVE/DEAD staining) compared to Matrigel [2]	ATP production by HUVEC cells versus Matrigel ([3]; after 24 h of culture)	ATP production by HUVEC cells versus Matrigel ([3]; after 7 day of culture)	number of attached cells versus Matrigel [4]	cell morphology and actin organization [5]	capillary-like structure formation by HUVECs [6]	length of tube-like structure versus Matrigel [6]	number of junctions of tube-like structure versus Matrigel [6]
–	Ac-IV[Cha]K-NH2 [IIZK]	well expressed	higher viability	no significant difference	significantly higher	no significant difference	fibroblastic morphology	formed capillary-like structure networks	no significant difference	comparable
2 mg/mL	Ac-Ile-Val-Phe-Lys-N H2 [IIFK]	well expressed	higher viability	no significant difference	significantly higher	no significant difference	fibroblastic morphology	formed capillary-like structure networks	no significant difference	comparable
